Reference: patent US20240294543A1, “CYCLOHEPTA-THIENO-DIAZEPINE DERIVATIVES AS GABA A GAMMA1 PAM” (Hoffmann-La Roche Inc., priority 2021, published 2024)
Read-outs that look alike come from different tables or passages of the source.

What was measured:
[1] = molecular target: human GABAA α1β3γ2 receptor (Homo sapiens (Human), UniProt P14867+P18507); assay: Radioligand binding assay, competition for [3H]Flumazenil, γ2-containing GABAA subtypes; conditions: for γ2/γ1 Selectivity Ratio: Ki α1β3γ2 (nM)/Ki α2β2γ1 (nM); for LogSel: Log[Ki α1β3γ2 (nM)/Ki α2β2γ1 (nM)]
Experimental: The affinity of compounds at GABAA γ2 subunit-containing receptors was measured by competition for [^3H]Flumazenil (81.1 Ci/mmol; Roche) binding to HEK293F cells expressing human (transiently transfected) receptors of composition α1β3γ2.
Harvested pellets from HEK293F cells expressing the different GABAA γ2 receptor subtypes were resuspended in Mannitol Buffer pH 7,2-7,4 and processed as described above for the cells expressing the GABAA γ1 subunit-containing receptors.
Assays were incubated to equilibrium for 1 hour at 4° C. and harvested onto GF/C uni-filters (Packard) by filtration using a Packard harvester and washing with ice-cold wash buffer (50 mM Tris; pH 7.5). After anhydrousing, filter-retained radioactivity was detected by liquid scintillation counting. Ki values were calculated using Excel-Fit (Microsoft) and are the means of two determinations.

[2] = molecular target: human GABAA α5β2γ1 receptor (Homo sapiens (Human), UniProt P31644+Q8N1C3); assay: Radioligand binding assay, competition for [3H]RO7239181, γ1-containing GABAA subtypes
Experimental: The affinity of compounds at GABAA γ1 subunit-containing receptors was measured by competition for [^3H]RO7239181 (67.3 Ci/mmol; Roche) binding to membranes from HEK293F cells (ThermoFisher R79007) expressing human (transiently transfected) receptors of composition α5β2γ1, α2β2γ1, α1β2γ1. For better protein expression of the α2 subunit-containing receptors, the 28 amino acid long signal peptide (Met1 to Ala28) of the human GABAA α2 subunit was substituted by the 31 amino acid long signal peptide (Met1 to Ser31) of human GABAA α5 subunit.
(§1) Harvested pellets from HEK293F cells expressing the different GABAA receptor subtypes were resuspended in Mannitol Buffer pH 7.2-7.4 (Mannitol 0.29 M, Triethylamine 10 mM, Acetic acid 10 mM, EDTA 1 mM plus protease inhibitors (20 tablets Complete, Roche Diagnostics Cat. No. 05 056 489 001 per liter)), washed two times and then resuspended at 1:10 to 1:15 dilution in the same buffer. Cell disruption was performed by stirring the suspension in a Parr vessel #4637 at 435 psi for 15 minutes, and then the suspensions were centrifuged at 1000×g for 15 minutes at 4° C. (Beckman Avanti J-HC; rotor JS-4.2). The supernatant (S1) was transferred in a 21 Schott flask and the pellet (P1) was resuspended with Mannitol Buffer up to 175 ml. The resuspended pellet was transferred into a 250 ml Corning centrifugal beaker and centrifuged at 1500×g for 10 minutes at 4° C. (Beckman Avanti J-HC; rotor JS-4.2). The supernatant (S1) was then transferred in the 21 Schott flask and the pellet was discarded. The supernatants (S1) were centrifuged in 500 ml Beckman polypropylene centrifugal beaker at 15'000×g for 30 minutes at 4° C. (Beckman Avanti J-20 XP; rotor JLA-10.500). The pellet (P2) was resuspended with Mannitol Buffer 1:1 and frozen at −80° C. The supernatant (S2) was centrifuged in 100 ml Beckman polypropylene centrifugal tubes at 48000×g for 50 minutes at 4° C. (Beckman Avanti J-20 XP; rotor JA-18). The supernatant (S3) was discarded and the pellet (P3) was resuspended with 1:1 Mannitol Buffer. The P2 and P3 protein concentration was determined with the BIORAD Standard assay method with bovine serum albumin as standard and measured on the NANO-Drop 1000. The membrane suspension was aliquots (500 μl per tube) and stored at −80° C. until required.
(§2) Membrane homogenates were resuspended and polytronised (Polytron PT1200E Kinematica AG) in Potassium Phosphate 10 mM, KCl 100 mM binding buffer at pH 7.4 to a final assay concentration determined with a previous experiment.
Radioligand binding assays were carried out in a volume of 200 μL (96-well plates) which contained 100 μL of cell membranes, [^3H]RO7239181 at a concentration of 1.5 nM (α5β2γ1) or 20-30 nM (α1β2γ1, α2β2γ1) and the test compound in the range of [0.3-10000]×10^−9 M. Nonspecific binding was defined by 10×10^−6 (α5β2γ1) and 30×10^−6 M RO7239181 and typically represented less than 5% (α5β2γ1) and less than 20% (α1β2γ1, α2β2γ1) of the total binding. Assays were incubated to equilibrium for 1 hour at 4° C. and then, membranes were filtered onto unifilter (96-well white microplate with bonded GF/C filters preincubated 20-50 minutes in 0.3% Polyethylenimine) with a Filtermate 196 harvester (Packard BioScience) and washed 4 times with cold Potassium Phosphate 10 mM pH 7.4, KCl 100 mM binding buffer. After anhydrousing, filter-retained radioactivity was detected by liquid scintillation counting. Ki values were calculated using Excel-Fit (Microsoft) and are the means of two determinations.

[3] = molecular target: human GABAA α2β2γ1 receptor (Homo sapiens (Human), UniProt P47869+Q8N1C3); assay: as above; conditions: Ki h-GABAA α2β2γ1, membranes of HEK293F cells, [3H]RO7239181 20-30 nM
Experimental: (§3) The affinity of compounds at GABAA γ1 subunit-containing receptors was measured by competition for [^3H]RO7239181 (67.3 Ci/mmol; Roche) binding to membranes from HEK293F cells (ThermoFisher R79007) expressing human (transiently transfected) receptors of composition α5β2γ1, α2β2γ1, α1β2γ1.
as §1, §2
(§4) Assays were incubated to equilibrium for 1 hour at 4° C. and then, membranes were filtered onto unifilter (96-well white microplate with bonded GF/C filters preincubated 20-50 minutes in 0.3% Polyethylenimine) with a Filtermate 196 harvester (Packard BioScience) and washed 4 times with cold Potassium Phosphate 10 mM pH 7.4, KCl 100 mM binding buffer. After anhydrousing, filter-retained radioactivity was detected by liquid scintillation counting. Ki values were calculated using Excel-Fit (Microsoft) and are the means of two determinations.

[4] = molecular target: human GABAA α1β2γ1 receptor (Homo sapiens (Human), UniProt P14867+Q8N1C3); assay: as above; conditions: [3H]RO7239181 20-30 nM, Table 1
Experimental: as §3, §1, §2, §4

[5] = Ki h-GABAA α1β2γ1, membranes of HEK293F cells
[6] = HEK293F cells, [3H]Flumazenil 1 nM, Table 1, read-out: Ki h-GABAA α1β3γ2

**Q.** Cc1nnc2n1-c1sc3c(c1C(c1c(F)cccc1F)=N[C@H]2C)CCC[C@@H](F)C3 (single isomer, unassigned) [Example 16] was tested. Which Ki [1] did it give?
**A.** 1420 nM

**Q.** And the “γ2/γ1 Selectivity Ratio” value ([1]; Table 1)?
**A.** 15.8

**Q.** And the LogSel ([1]; Table 1)?
**A.** 1.20

**Q.** And the Ki [2]?
**A.** 13.6 nM

**Q.** What about the Ki ([3]; Table 1) of the same compound?
**A.** 89.8 nM

**Q.** What about the Ki ([3]; Table 2) of the same compound?
**A.** 89.8 nM

**Q.** And the Ki [4, 5]?
**A.** 421 nM

**Q.** What does the source list for Cc1nnc2n1-c1sc3c(c1C(c1c(F)cccc1F)=NC2)CCOCC3 [Example 5, 9-(2,6-difluorophenyl)-3-methyl-14-oxa-18-thia-2,4,5,8-tetrazatetracyclo[8.8.0.02,6.011,17]octadeca-1(10),3,5,8,11(17)-pentaene]?
**A.** Ki [1]: 1260 nM; γ2/γ1 Selectivity Ratio ([1]; Table 1): 19.8; LogSel ([1]; Table 1): 1.30; Ki [2]: 10.5 nM; Ki ([3]; Table 1): 63.5 nM; Ki ([3]; Table 2): 63.5 nM; Ki [4, 5]: 246 nM

**Q.** How did the Ki [1, 6] turn out when [2H]C1([2H])OCc2c(sc3c2C(c2c(F)cccc2F)=N[C@@H](C)c2nc(C(=O)NCC)nn2-3)OC1([2H])[2H] [Example 38, (7S)-14,14,15,15-tetradeuterio-9-(2,6-difluorophenyl)-N-ethyl-7-methyl-13,16-dioxa-18-thia-2,3,5,8-tetrazatetracyclo[8.8.0.02,6.011,17]octadeca-1(10),3,5,8,11(17)-pentaene-4-carboxamide] was run?
**A.** 4030 nM

**Q.** What about the “γ2/γ1 Selectivity Ratio” value ([1]; Table 1) of the same compound?
**A.** 224.3

**Q.** What about the LogSel ([1]; Table 1) of the same compound?
**A.** 2.35

**Q.** What about the Ki [2] of the same compound?
**A.** 3.59 nM

**Q.** And the Ki ([3]; Table 1)?
**A.** 17.9 nM

**Q.** And the Ki ([3]; Table 2)?
**A.** 17.9 nM

**Q.** And the Ki ([4]; membranes of HEK293F cells, read-out: Ki h-GABAA α1β2γ1)?
**A.** 122 nM

**Q.** C[C@@H]1N=C(c2c(F)cccc2F)c2c(sc3c2COCCO3)-n2cc(C(=O)NCC(C)(C)O)nc21 [Example 59, (7S)-9-(2,6-difluorophenyl)-N-(2-hydroxy-2-methyl-propyl)-7-methyl-13,16-dioxa-18-thia-2,5,8-triazatetracyclo[8.8.0.02,6.011,17]octadeca-1(10),3,5,8,11(17)-pentaene-4-carboxamide] was tested. Which Ki [1, 6] did it give?
**A.** 1270 nM

**Q.** What about the “γ2/γ1 Selectivity Ratio” value ([1]; Table 1) of the same compound?
**A.** 142.9

**Q.** And the LogSel ([1]; Table 1)?
**A.** 2.16

**Q.** And the Ki [2]?
**A.** 2.27 nM

**Q.** And the Ki ([3]; Table 1)?
**A.** 8.9 nM

**Q.** And the Ki ([3]; Table 2)?
**A.** 8.9 nM

**Q.** What about the Ki [4, 5] of the same compound?
**A.** 21.7 nM

**Q.** Which results are given for C[C@@H]1N=C(c2c(F)cccc2F)c2c(sc3c2COCCO3)-n2nc(C(=O)NCC3(O)CC3)nc21 [Example 60, (7S)-9-(2,6-difluorophenyl)-N-[(1-hydroxycyclopropyl)methyl]-7-methyl-13,16-dioxa-18-thia-2,3,5,8-tetrazatetracyclo[8.8.0.02,6.011,17]octadeca-1(10),3,5,8,11(17)-pentaene-4-carboxamide]?
**A.** Ki [1, 6]: 3690 nM; γ2/γ1 Selectivity Ratio ([1]; Table 1): 157.4; LogSel ([1]; Table 1): 2.20; Ki [2]: 2.86 nM; Ki ([3]; Table 1): 23.4 nM; Ki ([3]; Table 2): 23.4 nM

**Q.** What does the source list for C[C@@H]1N=C(c2c(F)cccc2F)c2c(sc3c2COCCC3)-n2nc(C(=O)NC[C@](C)(O)C(F)(F)F)nc21 [Example 69, (7S)-9-(2,6-difluorophenyl)-7-methyl-N-[(2S)-3,3,3-trifluoro-2-hydroxy-2-methyl-propyl]-13-oxa-18-thia-2,3,5,8-tetrazatetracyclo[8.8.0.02,6.011,17]octadeca-1(10),3,5,8,11(17)-pentaene-4-carboxamide]?
**A.** Ki [1, 6]: 3700 nM; γ2/γ1 Selectivity Ratio ([1]; Table 1): 59.7; LogSel ([1]; Table 1): 1.78; Ki [2]: 7.8 nM; Ki ([3]; Table 1): 62 nM; Ki ([3]; Table 2): 62 nM

**Q.** With C[C@@H]1N=C(c2c(F)cccc2F)c2c(sc3c2COCCC3)-n2nc(C(=O)NCC(C)(C)O)nc21 [Example 71, (7S)-9-(2,6-difluorophenyl)-N-(2-hydroxy-2-methyl-propyl)-7-methyl-13-oxa-18-thia-2,3,5,8-tetrazatetracyclo[8.8.0.02,6.011,17]octadeca-1(10),3,5,8,11(17)-pentaene-4-carboxamide] as the compound, how does the Ki [1, 6] read?
**A.** 3920 nM

**Q.** And the “γ2/γ1 Selectivity Ratio” value ([1]; Table 1)?
**A.** 49.0

**Q.** And the LogSel ([1]; Table 1)?
**A.** 1.69

**Q.** What about the Ki [2] of the same compound?
**A.** 7.3 nM

**Q.** And the Ki ([3]; Table 1)?
**A.** 80 nM

**Q.** And the Ki ([3]; Table 2)?
**A.** 80 nM
